In brackets after ≈: the same amount, converted by molar mass.
Legend:
[1] = tested on: Staphylococcus aureus (SAUR 9213); assay: MIC by standard agar dilution method; format: cell-based; settings: Mueller Hinton agar, incubated overnight at 35° C., read-out: MIC
From the text: The antibacterial agents of this invention have useful activity against a variety of organisms. The in vitro activity of compounds of this invention can be assessed by standard testing procedures such as the determination of minimum inhibitory concentration (MIC) by agar dilution as described in “Approved Standard. Methods for Dilution Antimicrobial Susceptibility Tests for Bacteria That Grow Aerobically”, 3rd. ed., published 1993 by the National Committee for Clinical Laboratory Standards, Villanova, Pa., USA. The in vitro MICs of test compounds are determined by a standard agar dilution method. A stock drug solution of each analog is prepared in the preferred solvent, usually DMSO:H2O (1:3). Serial 2-fold dilutions of each sample are made using 1.0 ml aliquots of sterile distilled water. To each 1.0 ml aliquot of drug is added 9 ml of molten Mueller Hinton agar medium. The drug-supplemented agar is mixed, poured into 15×100 mm petri dishes, and allowed to solidify and dry prior to inoculation. Vials of each of the test organisms are maintained frozen in the vapor phase of a liquid nitrogen freezer. Test cultures are grown overnight at 35° C. on the medium appropriate for the organism. Colonies are harvested with a sterile swab, and cell suspensions are prepared in Trypticase Soy broth (TSB) to equal the turbidity of a 0.5 McFarland standard. A 1:20 dilution of each suspension is made in TSB. The plates containing the drug supplemented agar are inoculated with a 0.001 ml drop of the cell suspension using a Steers replicator, yielding approximately 10^4 to 10^5 cells per spot. The plates are incubated overnight at 35° C. Following incubation the Minimum Inhibitory Concentration (MIC μg/ml), the lowest concentration of drug that inhibits visible growth of the organism, is read and recorded.

SMILES | MIC [1] | melting point
NC(=O)[C@H]1CN(c2ccc([C@H]3CC[S@+]([O-])CC3)cc2)C(=O)O1 [Example 27, (5R)-3-[4-(trans-tetrahydro-1-oxido-2H-thiopyran-4-yl)phenyl]-2-oxo-5-oxazolidinecarboxamide] | 8 µg/mL (≈ 24.8 µM) | 174 to 175 °C
NC(=O)[C@H]1CN(c2cc(F)c(N3CC[S+]([O-])CC3)c(F)c2)C(=O)O1 [Example 22, (5R)-(−)-3-[3,5-Difluoro-4-(thiomorpholin-4-yl)phenyl]-2-oxo-5-oxazolidinecarboxamide S-oxide] | 4 µg/mL (≈ 11.1 µM) | 273 to 276 °C (dec.)
CNC(=O)[C@H]1CN(c2ccc(C3CCS(=O)(=O)CC3)c(F)c2)C(=O)O1 [Example 41, (5R)-(−)-N-Methyl-3-[4-(Tetrahydro-2H-thiopyran-4-yl)-3-fluorophenyl]-2-oxo-5-oxazolidinecarboxamide S,S-dioxide] | 2 µg/mL (≈ 5.4 µM) | 180.5 to 182 °C
C[C@@H]1Cc2cc(N3C[C@H](C(N)=O)OC3=O)ccc2N1C=O [Example 49, (5R)-3-[(2R)-2,3-Dihydro-1-formyl-2-methyl-1H-indol-5-yl]-2-oxo-5-oxazolidinecarboxamide] | 8 µg/mL (≈ 27.7 µM) | 228 to 230 °C
NC(=O)[C@H]1CN(c2ccc(C3=CCS(=O)(=O)CC3)c(F)c2)C(=O)O1 [Example 12, (5R)-(−)-3-[4-(3,6-Dihydro-2H-thiopyran-4-yl)-3-fluorophenyl]-2-oxo-5-oxazolidinecarboxamide S,S-dioxide] | 2 µg/mL (≈ 5.64 µM) | 206 to 208 °C
CCn1c(=O)sc2cc(N3C[C@H](C(N)=O)OC3=O)ccc21 [Example 30, (5R)-(−)-3-(2,3-Dihydro-3-ethyl-2-oxo-6-benzothiazolyl)-2-oxo-5-oxazolidinecarboxamide] | 1 µg/mL (≈ 3.25 µM) | 211 to 212.5 °C
NC(=O)[C@H]1CN(c2ccc(N3CCS(=O)(=O)CC3)cc2)C(=O)O1 [Example 18, (5R)-(−)-3-[4-(Thiomorpholin-4-yl)phenyl]-2-oxo-5-oxazolidinecarboxamide S,S-dioxide] | 16 µg/mL (≈ 47.1 µM) | 226 to 228 °C
CCn1c(=O)oc2cc(N3C[C@H](C(=O)NC)OC3=O)ccc21 [Example 52, (5R)-(−)-N-Methyl-3-(2,3-dihydro-3-ethyl-2-oxo-6-benzoxazolyl)-2-oxo-5-oxazolidinecarboxamide] | 2 µg/mL (≈ 6.55 µM) | 263 to 265 °C
CNC(=O)[C@H]1CN(c2ccc3c(c2)oc(=O)n3C)C(=O)O1 [Example 51, (5R)-(−)-N-Methyl-3-(2,3-dihydro-3-methyl-2-oxo-6-benzoxazolyl)-2-oxo-5-oxazolidinecarboxamide] | 2 µg/mL (≈ 6.87 µM) | 304 to 306 °C
NC(=O)[C@H]1CN(c2ccc(-c3ccncc3)c(F)c2)C(=O)O1 [Example 8, (5R)-(−)-3-[4-(4-Pyridyl)-3-fluorophenyl]-2-oxo-5-oxazolidinecarboxamide] | 1 µg/mL (≈ 3.32 µM) | 256 to 259 °C (dec.)
CNC(=O)[C@H]1CN(c2ccc3c(c2)sc(=O)n3C)C(=O)O1 [Example 32, (5R)-(−)-N-Methyl-3-(2,3-dihydro-3-methyl-2-oxo-6-benzothiazolyl)-2-oxo-5-oxazolidinecarboxamide] | 1 µg/mL (≈ 3.25 µM) | 264 to 267 °C
CCn1c(=O)sc2cc(N3C[C@H](C(=O)NC)OC3=O)ccc21 [Example 36, (5R)-(−)-N-Methyl-3-(2,3-dihydro-3-ethyl-2-oxo-6-benzothiazolyl)-2-oxo-5-oxazolidinecarboxamide] | 2 µg/mL (≈ 6.22 µM) | 227 to 229 °C
NC(=O)[C@H]1CN(c2ccc([C@H]3CC[S@@+]([O-])CC3)cc2)C(=O)O1 [Example 26, (5R)-3-[4-(cis-tetrahydro-1-oxido-2H-thiopyran-4-yl)phenyl]-2-oxo-5-oxazolidinecarboxamide] | 16 µg/mL (≈ 49.6 µM) | 269 to 273 °C (dec.)
NC(=O)[C@H]1CN(c2ccc([C@H]3CC[S@@+]([O-])CC3)c(F)c2)C(=O)O1 [Example 23, (5R)-3-[3-Fluoro-4-(cis-tetrahydro-1-oxido-2H-thiopyran-4-yl)phenyl]-2-oxo-5-oxazolidinecarboxamide] | 4 µg/mL (≈ 11.8 µM) | 279 to 281 °C (dec.)
NC(=O)[C@H]1CN(c2ccc(C3=CCOCC3)c(F)c2)C(=O)O1 [Example 9, (5R)-(−)-3-[4-(3,6-Dihydro-2H-pyran-4-yl)-3-fluorophenyl]-2-oxo-5-oxazolidinecarboxamide] | 4 µg/mL (≈ 13.1 µM) | 164 to 169 °C
CNC(=O)[C@H]1CN(c2ccc3c(c2)oc(=O)n3C(C)C)C(=O)O1 [Example 53, (5R)-(−)-N-Methyl-3-(2,3-dihydro-3-isopropyl-2-oxo-6-benzoxazolyl)-2-oxo-5-oxazolidinecarboxamide] | 2 µg/mL (≈ 6.26 µM) | 216 to 218 °C
CN1C(=O)CCc2cc(N3C[C@H](C(N)=O)OC3=O)cc(F)c21 [Example 82, (5R)-3-(8-Fluoro-1-methyl-2-oxo-1,2,3,4-tetrahydroquinolin-6-yl)-2-oxo-5-oxazolidinecarboxamide] | 1 µg/mL (≈ 3.25 µM) | 260 to 262 °C
NC(=O)[C@H]1CN(c2ccc(N3Cc4cccnc4C3)c(F)c2)C(=O)O1 [Example 54, (5R)-3-[4-(5,7-Dihydro-6H-pyrrolo[3,4-b]pyridin-6-yl)-3-fluorophenyl]-2-oxo-5-oxazolidinecarboxamide] | 0.5 µg/mL (≈ 1.46 µM) | 257 °C (dec.)
CC(C)n1c(=O)sc2cc(N3C[C@H](C(N)=O)OC3=O)ccc21 [Example 31, (5R)-(−)-3-(2,3-Dihydro-3-isopropyl-2-oxo-6-benzothiazolyl)-2-oxo-5-oxazolidinecarboxamide] | 1 µg/mL (≈ 3.11 µM) | 183 to 184.5 °C
Cn1c(=O)sc2cc(N3C[C@H](C(=O)NCCO)OC3=O)ccc21 [Example 34, (5R)-(−)-N-(2-Hydroxyethyl)-3-(2,3-dihydro-3-methyl-2-oxo-6-benzothiazolyl)-2-oxo-5-oxazolidinecarboxamide] | 8 µg/mL (≈ 23.7 µM) | 217 to 219 °C
CONC(=O)[C@H]1CN(c2ccc(N3CCOCC3)c(F)c2)C(=O)O1 [Example 5, (5R)-(−)-3-[3-Fluoro-4-(4-morpholinyl)phenyl]-N-methoxy-2-oxo-5-oxazolidinecarboxamide] | 16 µg/mL (≈ 47.2 µM) | 206 to 208 °C (dec.)
CC(C)n1c(=O)oc2cc(N3C[C@H](C(N)=O)OC3=O)ccc21 [Example 40, (5R)-(−)-3-(2,3-Dihydro-3-isopropyl-2-oxo-6-benzoxazolyl)-2-oxo-5-oxazolidinecarboxamide] | 4 µg/mL (≈ 13.1 µM) | 182.5 to 184 °C
CNC(=O)[C@H]1CN(c2ccc(N3CCOCC3)c(F)c2)C(=O)O1 [Example 2, (5R)-(−)-3-[3-Fluoro-4-(4-morpholinyl)phenyl]-N-methyl-2-oxo-5-oxazolidinecarboxamide] | 8 µg/mL (≈ 24.7 µM) | 182 to 183 °C (dec.)
NC(=O)[C@H]1CN(c2ccc([C@H]3CC[S@+]([O-])CC3)c(F)c2)C(=O)O1 [Example 24, (5R)-3-[3-Fluoro-4-(trans-tetrahydro-1-oxido-2H-thiopyran-4-yl)phenyl]-2-oxo-5-oxazolidinecarboxamide] | 2 µg/mL (≈ 5.88 µM) | 201 to 203 °C
NC(=O)[C@H]1CN(c2ccc(C3CCS(=O)(=O)CC3)cc2)C(=O)O1 [Example 25, (5R)-(−)-3-[4-(tetrahydro-2H-thiopyran-4-yl)phenyl]-2-oxo-5-oxazolidinecarboxamide S,S-dioxide] | 8 µg/mL (≈ 23.6 µM) | 211 to 212 °C
NC(=O)[C@H]1CN(c2ccc(C3CCS(=O)(=O)CC3)c(F)c2)C(=O)O1 [Example 13, (5R)-(−)-3-[4-(Tetrahydro-2H-thiopyran-4-yl)-3-fluorophenyl]-2-oxo-5-oxazolidinecarboxamide S,S-dioxide] | 2 µg/mL (≈ 5.61 µM) | 229 to 231 °C (dec.)

Reference: patent US7645781B2, “N-aryl-2-oxazolidinone-5-carboxamides and their derivatives” (Pfizer Inc, priority 2002, dated 2010)
